From US12343347B2 (Biohaven Pharmaceutical Holding Company Ltd., priority 2012, dated 2025)

What was measured:
Assay type in all cases: in vitro ADME
[1] = Metabolic stability in pooled mouse liver microsomes; details: mouse liver microsomes 0.5 mg/mL, 1 uM, NADPH, 37° C.
Method: (§1) Metabolic Stability: In vitro metabolic stability was determined in pooled mouse or human liver microsomes (BD Gentest) at a protein concentration of 0.5 mg/mL in reaction buffer (100 mM KH2PO4, pH 7.4 and 12 mM MgCl2). Each drug candidate was added to a final concentration of 1 uM. This mixture was pre-warmed to 37° C. for 10 minutes prior to starting the reaction with the addition of β-Nicotinamide adenine dinucleotide 2′-phosphate reduced (NADPH) to a final concentration of 1 mM. A parallel incubation lacking NADPH served as the control. After incubation for 30 min at 37° C., the reactions were quenched by the addition of acetonitrile containing 0.1% formic acid and internal standard, vortex mixed for 2 minutes and centrifuged at 4000 rpm for 10 minutes to pellet the precipitated protein. The resulting supernatant containing the drug candidate and its potential metabolites was diluted 5-fold with water containing 0.1% formic acid and submitted to LC-MS/MS analysis. […]
(§2) LC-MS/MS Analysis: An aliquot from each incubation was analyzed by LC-MS/MS with SRM detection in the positive ionization mode using an ABSciex API 5500 QTrap Mass Spectrometer interfaced via the ABSciex Turbo V IonSpray source (ESI) to an Eksigent ExpressHT LC system. […] A fast gradient, from 15 to 85% organic in 2.5 minutes, with run time of 5.0 minutes, and flow rate of 50 uL/min was utilized. Peak areas were integrated using MultiQuant v2.0 software from ABSciex.

[2] = Metabolic stability in pooled human liver microsomes; details: human liver microsomes 0.5 mg/mL, 1 uM, NADPH, 37° C.
Method: as §1, §2

[3] = Plasma stability in fresh mouse plasma; details: 1 uM, 37° C.
Method: (§3) Plasma Stability: Assessment of plasma stability was carried out by individual incubations of drug candidates in fresh mouse or human control plasma at a concentration of 1 uM for 1 hour at 37° C. After which, the samples were de-proteinized by addition of 2 volumes of acetonitrile containing 0.1% formic acid and internal standard, vortex mixed for 2 minutes and centrifuged at 4000 rpm for 10 minutes to pellet precipitated protein. The resulting supernatant containing the drug candidates was diluted 5-fold with water containing 0.1% formic acid and submitted to LC-MS/MS analysis. All determinations were done in triplicate. […]
as §2

[4] = Plasma stability in fresh human plasma; details: 1 uM, 37° C.
Method: as §3, §2

[5] = Stability in Simulated Gastric Fluid (SGF); details: SGF:acetonitrile 9:1, 0.01 mg/mL, 37° C.
Method: (§4) Stability in Simulated Gastric Fluid (SGF) and Simulated Intestinal Fluid (SIF). Procedure from Baudy et. al. (J. Med. Chem. 2009, 52, 771-778) used. The physiological stability of pro-drugs was determined by examining the stability of the compound in SGF, and SIF at 37° C. The compounds were prepared in a 9:1 mixture of the appropriate test component (SGF, SIF) and acetonitrile to a final concentration of 0.01 mg/mL. The samples were thoroughly mixed and maintained at 37° C. Each sample was injected consecutively onto an Agilent 1100 system (Luna C18, 3 μm, 50 mm×3 mm; 1 mL/min; mobile phase of 0.1% trifluoroacetic acid in water/0.1% trifluoroacetic acid in acetonitrile) after a 3 h period. The percent remaining of pro-drug was calculated by comparing the area of pro-drug compound versus riluzole generated. The identities of the parent compounds and conversion products were confirmed by LC/MS.

[6] = Stability in Simulated Intestinal Fluid (SIF); details: SIF:acetonitrile 9:1, 0.01 mg/mL, 37° C.
Method: as §4

| SMILES | Metabolic Stability mouse (30 minutes), percent of pro-drug metabolized to riluzole [1] | Metabolic Stability human (30 minutes), percent of pro-drug metabolized to riluzole [2] | Plasma Stability mouse (1 hour), percent of pro-drug metabolized to riluzole [3] | Plasma Stability Human (1 hour), percent of pro-drug metabolized to riluzole [4] | SGF (3 hours), percent of pro-drug metabolized to riluzole [5] | SIF (3 hours), percent of pro-drug metabolized to riluzole [6] |
| --- | --- | --- | --- | --- | --- | --- |
| N[C@H](Cc1ccccc1)C(=O)Nc1nc2ccc(OC(F)(F)F)cc2s1 [Cpd 4, (R)-2-Amino-3-phenyl-N-(6-trifluoromethoxy-benzothiazol-2-yl)-propionamide] | 12% | 18% | 47% | 6% | 3% | 0% |
| N[C@H](COCc1ccccc1)C(=O)Nc1nc2ccc(OC(F)(F)F)cc2s1 [Cpd 5, (R)-2-Amino-3-benzyloxy-N-(6-trifluoromethoxy-benzothiazol-2-yl)-propionamide] | 24% | 0% | 25% | 3% | – | – |
| N[C@@H](Cc1ccccc1)C(=O)Nc1nc2ccc(OC(F)(F)F)cc2s1 [Cpd 9, (S)-2-Amino-3-phenyl-N-(6-trifluoromethoxy-benzothiazol-2-yl)-propionamide] | 2% | 0% | 0% | 7% | – | – |
| N[C@@H](COCc1ccccc1)C(=O)Nc1nc2ccc(OC(F)(F)F)cc2s1 [Cpd 10, (S)-2-Amino-3-benzyloxy-N-(6-trifluoromethoxy-benzothiazol-2-yl)-propionamide] | 0% | 15% | 52% | 9% | 0% | 0% |
| CC(C)[C@H](N)C(=O)Nc1nc2ccc(OC(F)(F)F)cc2s1 [Cpd 11, (S)-2-Amino-3-methyl-N-(6-trifluoromethoxy-benzothiazol-2-yl)-butyramide] | 40% | 6% | 45% | 11% | 0% | 40% |
| CCCCCCOC(=O)Nc1nc2ccc(OC(F)(F)F)cc2s1 [Cpd 17, (6-Trifluoromethoxy-benzothiazol-2-yl)-carbamic acid hexyl ester] | – | – | – | – | 0% | – |
| CN(C)CCOC(=O)Nc1nc2ccc(OC(F)(F)F)cc2s1 [Cpd 18, (6-Trifluoromethoxy-benzothiazol-2-yl)-carbamic acid 2-dimethylamino-ethyl ester] | 13% | 10% | 3% | 0% | 0% | 0% |
| O=C(CCC(=O)Nc1nc2ccc(OC(F)(F)F)cc2s1)NCCN1CCOCC1 [Cpd 24, N-(2-Morpholin-4-yl-ethyl)-N′-(6-trifluoromethoxy-benzothiazol-2-yl)-succinamide] | – | – | – | – | 0% | 60% |

The remaining lines, values ahead:

| Metabolic Stability mouse (30 minutes), percent of pro-drug metabolized to riluzole [1] | Metabolic Stability human (30 minutes), percent of pro-drug metabolized to riluzole [2] | Plasma Stability mouse (1 hour), percent of pro-drug metabolized to riluzole [3] | Plasma Stability Human (1 hour), percent of pro-drug metabolized to riluzole [4] | SGF (3 hours), percent of pro-drug metabolized to riluzole [5] | SIF (3 hours), percent of pro-drug metabolized to riluzole [6] | SMILES |
| --- | --- | --- | --- | --- | --- | --- |
| 4% | 7% | 11% | 3% | – | – | NCC(=O)Nc1nc2ccc(OC(F)(F)F)cc2s1 [Cpd 1, 2-Amino-N-(6-trifluoromethoxy-benzothiazol-2-yl)-acetamide] |
| 10% | 4% | 36% | 15% | 0% | 50% | C[C@@H](N)C(=O)Nc1nc2ccc(OC(F)(F)F)cc2s1 [Cpd 2, (R)-2-Amino-N-(6-trifluoromethoxy-benzothiazol-2-yl)-propionamide] |
| 1% | 0% | 28% | 10% | 0% | 50% | C[C@H](N)C(=O)Nc1nc2ccc(OC(F)(F)F)cc2s1 [Cpd 7, (S)-2-Amino-N-(6-trifluoromethoxy-benzothiazol-2-yl)-propionamide] |
| 10% | 0% | 0% | 15% | 0% | 0% | COC(=O)Nc1nc2ccc(OC(F)(F)F)cc2s1 [Cpd 12, (6-Trifluoromethoxy-benzothiazol-2-yl)-carbamic acid methyl ester] |
| 8% | 7% | 0% | 0% | 0% | 0% | CCOC(=O)Nc1nc2ccc(OC(F)(F)F)cc2s1 [Cpd 13, (6-Trifluoromethoxy-benzothiazol-2-yl)-carbamic acid ethyl ester] |
| 15% | 34% | 0% | 0% | 0% | 0% | CCCOC(=O)Nc1nc2ccc(OC(F)(F)F)cc2s1 [Cpd 14, (6-Trifluoromethoxy-benzothiazol-2-yl)-carbamic acid propyl ester] |
| 53% | 13% | 9% | 0% | 0% | 0% | CCCCOC(=O)Nc1nc2ccc(OC(F)(F)F)cc2s1 [Cpd 15, (6-Trifluoromethoxy-benzothiazol-2-yl)-carbamic acid butyl ester] |
| 23% | 14% | 0% | 0% | 5% | 0% | CC(C)COC(=O)Nc1nc2ccc(OC(F)(F)F)cc2s1 [Cpd 16, (6-Trifluoromethoxy-benzothiazol-2-yl)-carbamic acid isobutyl ester] |
| – | – | – | – | 0% | 50% | NCC1(CC(=O)Nc2nc3ccc(OC(F)(F)F)cc3s2)CCCCC1 [Cpd 29, 2-(1-Aminomethyl-cyclohexyl)-N-(6-trifluoromethoxy-benzothiazol-2-yl)-acetamide] |
